Entries after “also recorded” stand apart in the source; their conditions may differ.
Key:
[1] = target: T1, E. coli glucosamine synthase GlmS*54 (Escherichia coli, UniProt P17169, A39T/G472S/R250C); assay: Effects of phosphorylated sugars on glucosamine synthase; format: biochemical
T1 construct: made in house; host or cells: E. coli 7107-18 (printed '7017-18'; T7-glmS*54 integrated at galK) and strains derived from it; crude extract
Procedure: (§1) Glucosamine synthetase activity was examined in the presence of various phosphorylated sugars. Crude enzyme extracts was prepared from cells of 7017-18 grown in shake flasks for 24 hours with lactose induction.

[2] = target: glucose-6-P dehydrogenase (zwf) (Escherichia coli, UniProt P0AC53, A9V); assay: Effect of phosphorylated amino sugars on glucose-6-P dehydrogenase; format: biochemical; conditions: in vitro, FIG. 16
glucose-6-P dehydrogenase (zwf), sequence (P0AC53 whole entry A9V): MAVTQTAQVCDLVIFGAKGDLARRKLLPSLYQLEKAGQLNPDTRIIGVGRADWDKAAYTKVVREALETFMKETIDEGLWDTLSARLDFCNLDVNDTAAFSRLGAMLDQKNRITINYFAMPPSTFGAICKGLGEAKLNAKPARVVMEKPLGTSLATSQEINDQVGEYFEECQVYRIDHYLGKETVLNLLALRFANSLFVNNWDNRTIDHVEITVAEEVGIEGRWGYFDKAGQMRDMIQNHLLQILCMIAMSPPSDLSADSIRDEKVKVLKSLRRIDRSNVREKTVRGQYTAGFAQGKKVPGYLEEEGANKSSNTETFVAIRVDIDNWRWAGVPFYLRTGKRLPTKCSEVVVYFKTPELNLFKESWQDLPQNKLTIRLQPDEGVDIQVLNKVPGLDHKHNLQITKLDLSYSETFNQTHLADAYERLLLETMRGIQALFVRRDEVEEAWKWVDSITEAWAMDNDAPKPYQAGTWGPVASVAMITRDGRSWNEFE

[3] = target: T2, E. coli GlmS (glucosamine-6-phosphate synthase), wild type, SEQ ID NO:2 (strain 2123-12) (Escherichia coli, UniProt P17169); assay: GlmS (glucosamine synthase) inhibition and Michaelis-Menten kinetics, crude extract of strain 2123-12; format: biochemical
T2 construct: made in house; host or cells: E. coli strain 2123-12 (T7-glmS integrated in the chromosome), crude cell extract
T2 sequence (P17169 2-609 limits assumed): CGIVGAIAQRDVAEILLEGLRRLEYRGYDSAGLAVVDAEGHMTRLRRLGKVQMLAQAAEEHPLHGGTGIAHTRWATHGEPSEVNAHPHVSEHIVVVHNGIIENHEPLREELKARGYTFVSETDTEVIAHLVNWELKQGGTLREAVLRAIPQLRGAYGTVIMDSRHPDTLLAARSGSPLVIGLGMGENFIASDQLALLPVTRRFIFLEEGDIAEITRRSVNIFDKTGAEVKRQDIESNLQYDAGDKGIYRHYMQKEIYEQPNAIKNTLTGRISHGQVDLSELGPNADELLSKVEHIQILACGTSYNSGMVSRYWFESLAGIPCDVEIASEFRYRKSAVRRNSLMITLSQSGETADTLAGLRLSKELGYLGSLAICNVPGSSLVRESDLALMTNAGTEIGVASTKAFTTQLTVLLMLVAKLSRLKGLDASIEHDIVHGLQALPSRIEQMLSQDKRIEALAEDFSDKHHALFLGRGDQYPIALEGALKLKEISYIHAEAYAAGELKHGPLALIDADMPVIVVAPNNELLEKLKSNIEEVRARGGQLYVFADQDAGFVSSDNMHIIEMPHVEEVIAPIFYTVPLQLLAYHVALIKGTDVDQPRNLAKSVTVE
Procedure: (§2) Different glucosamine synthetase enzymes, including native B. subtillus GlmS, native E. coli GlmS and mutant E. coli GlmS, were studied in vitro. Cells of various E. coli strains were grown in the M9A medium, harvested, and frozen. Cells extracts were prepared and the glucosamine synthetases were characterized and compared.
(§3) Enzyme sensitivities to the reaction product glucosamine-6-P were examined. […] This figure highlights the dramatic difference between the wild type GlmS and these mutant GlmS strains.
(§4) The Mutants 2123-54 and the B. subtilis enzyme have higher Ki values (Table 6). Measured Ki constants for several of these mutants are 4 to 8 times the value for the native enzyme in strain 2123-12. From shake flask studies it is apparent that decreased sensitivity to glucosamine-6-P allows higher glucosamine levels to accumulate.
(§5) These values are slightly higher than those obtained with the native enzyme.

[4] = target: T3, E. coli GlmS mutant GlmS*54, SEQ ID NO:6 (Ala39Thr, Arg250Cys, Gly472Ser) (strain 2123-54) (Escherichia coli, UniProt P17169, A39T/G472S/R250C); assay: GlmS inhibition and Michaelis-Menten kinetics, crude extract of strain 2123-54; format: biochemical
T3 construct: made in house; host or cells: E. coli strain 2123-54 (lacZ::T7-glmS*54), crude cell extract
T3 sequence (P17169 2-609 A39T/R250C/G472S): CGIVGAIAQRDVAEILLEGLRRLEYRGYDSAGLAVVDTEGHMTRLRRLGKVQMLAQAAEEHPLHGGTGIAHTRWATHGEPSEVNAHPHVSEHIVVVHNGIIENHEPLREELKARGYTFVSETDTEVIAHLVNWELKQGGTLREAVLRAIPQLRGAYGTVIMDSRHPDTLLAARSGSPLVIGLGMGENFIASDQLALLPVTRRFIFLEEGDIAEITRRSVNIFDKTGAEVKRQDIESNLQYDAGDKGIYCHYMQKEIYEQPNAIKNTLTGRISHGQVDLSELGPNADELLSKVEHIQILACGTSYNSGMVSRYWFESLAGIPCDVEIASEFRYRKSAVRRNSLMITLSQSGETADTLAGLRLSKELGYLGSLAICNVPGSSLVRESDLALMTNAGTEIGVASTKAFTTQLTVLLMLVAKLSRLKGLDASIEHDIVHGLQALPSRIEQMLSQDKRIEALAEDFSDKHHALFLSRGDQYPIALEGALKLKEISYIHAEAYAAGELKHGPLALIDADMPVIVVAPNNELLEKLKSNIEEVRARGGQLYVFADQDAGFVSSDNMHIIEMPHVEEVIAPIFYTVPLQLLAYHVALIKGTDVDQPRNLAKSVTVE
Procedure: as §2, §3, §4, §5

[5] = target: E. coli GlmS mutant GlmS*110 (Escherichia coli, UniProt P17169); assay: GlmS inhibition and Michaelis-Menten kinetics; format: biochemical; conditions: read-out: Ki (GlcN-6-P)
E. coli GlmS mutant GlmS*110, sequence (P17169 whole entry, change not shown): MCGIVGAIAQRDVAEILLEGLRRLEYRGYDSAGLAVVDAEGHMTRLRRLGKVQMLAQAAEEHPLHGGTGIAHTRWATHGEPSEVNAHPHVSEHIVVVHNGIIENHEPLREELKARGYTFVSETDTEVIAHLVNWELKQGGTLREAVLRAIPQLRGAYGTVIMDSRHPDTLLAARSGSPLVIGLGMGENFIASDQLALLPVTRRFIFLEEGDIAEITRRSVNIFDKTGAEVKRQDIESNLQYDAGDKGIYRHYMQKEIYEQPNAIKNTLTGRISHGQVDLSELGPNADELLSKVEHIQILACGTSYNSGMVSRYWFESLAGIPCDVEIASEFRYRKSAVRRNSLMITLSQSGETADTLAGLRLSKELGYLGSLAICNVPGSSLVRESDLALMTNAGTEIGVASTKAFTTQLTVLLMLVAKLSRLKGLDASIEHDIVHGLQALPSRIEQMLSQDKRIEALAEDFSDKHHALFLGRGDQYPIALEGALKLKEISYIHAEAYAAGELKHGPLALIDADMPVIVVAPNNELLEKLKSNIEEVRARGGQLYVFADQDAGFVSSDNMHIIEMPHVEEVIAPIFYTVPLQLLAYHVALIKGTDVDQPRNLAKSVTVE
Procedure: as §2, §3, §4, §5

[6] = target: T4, E. coli GlmS mutant GlmS*124, SEQ ID NO:8 (Leu469Pro) (strain 2123-124) (Escherichia coli, UniProt P17169, L469P); assay: GlmS inhibition and Michaelis-Menten kinetics; format: biochemical
T4 construct: made in house; host or cells: E. coli strain 2123-124, cell extract
T4 sequence (P17169 2-609 L469P): as the sequence (P17169 2-609 limits assumed) above, with L468P counted along it
Procedure: as §2, §3, §4, §5

[7] = target: E. coli GlmS mutant GlmS*69 (Escherichia coli, UniProt P17169); assay: GlmS inhibition and Michaelis-Menten kinetics; format: biochemical; conditions: read-out: Ki (GlcN-6-P)
E. coli GlmS mutant GlmS*69, sequence (P17169 whole entry, change not shown): as the sequence (P17169 whole entry, change not shown) above
Procedure: as §2, §3, §4, §5

[8] = target: T5, E. coli GlmS mutant GlmS*72, SEQ ID NO:14 (Glu15Lys, Asp387Val, Ser450Pro, Glu525Gly) (strain 2123-72) (Escherichia coli, UniProt P17169, D387V/E15K/E525G/S450P); assay: GlmS inhibition and Michaelis-Menten kinetics; format: biochemical
T5 construct: made in house; host or cells: E. coli strain 2123-72 (from 7101-17(DE3), plasmid with glmS*72 integrated), cell extract
T5 sequence (P17169 2-609 E15K/D387V/S450P/E525G): as the sequence (P17169 2-609 limits assumed) above, with E14K, D386V, S449P, E524G counted along it
Procedure: as §2, §3, §4, §5

[9] = target: T6, Bacillus subtilis GlmS, wild type, SEQ ID NO:16 (Bacillus subtilis, UniProt P0CI73); assay: biochemical
T6 construct: made in house; host or cells: E. coli 7107-24 (7101-17(DE3) with pET24d(+)/B. subtilis glmS from ATCC23856), crude cell extract
T6 sequence (P0CI73 2-600): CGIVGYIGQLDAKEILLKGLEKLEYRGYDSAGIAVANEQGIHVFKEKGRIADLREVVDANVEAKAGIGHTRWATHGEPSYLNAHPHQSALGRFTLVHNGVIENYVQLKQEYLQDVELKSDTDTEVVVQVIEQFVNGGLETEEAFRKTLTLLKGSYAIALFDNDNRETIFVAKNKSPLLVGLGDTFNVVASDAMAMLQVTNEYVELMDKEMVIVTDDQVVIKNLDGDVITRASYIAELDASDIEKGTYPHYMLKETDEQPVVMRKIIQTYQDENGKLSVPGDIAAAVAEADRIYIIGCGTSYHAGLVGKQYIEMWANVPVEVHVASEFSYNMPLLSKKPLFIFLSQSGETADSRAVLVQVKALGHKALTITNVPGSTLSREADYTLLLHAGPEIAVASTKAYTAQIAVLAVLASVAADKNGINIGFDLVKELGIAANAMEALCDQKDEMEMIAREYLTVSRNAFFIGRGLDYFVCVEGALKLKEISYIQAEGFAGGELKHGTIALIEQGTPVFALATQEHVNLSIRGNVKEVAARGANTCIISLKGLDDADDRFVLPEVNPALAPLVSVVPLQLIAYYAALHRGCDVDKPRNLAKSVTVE
Procedure: as §2
Enzyme sensitivities to the reaction product glucosamine-6-P were examined.

[10] = target: E. coli GlmS mutant GlmS*4 (strain 2123-4) (Escherichia coli, UniProt P17169); assay: GlmS sensitivity to inhibition by glucosamine-6-P; format: biochemical; conditions: 0-30 mM glucosamine-6-P; FIG. 5
E. coli GlmS mutant GlmS*4 (strain 2123-4), sequence (P17169 whole entry, change not shown): as the sequence (P17169 whole entry, change not shown) above
Procedure: as §2, §3

[11] = target: E. coli GlmS mutant GlmS*59 (strain 2123-59) (Escherichia coli, UniProt P17169); assay: GlmS sensitivity to inhibition by glucosamine-6-P; format: biochemical; conditions: 0-30 mM glucosamine-6-P; FIG. 5
E. coli GlmS mutant GlmS*59 (strain 2123-59), sequence (P17169 whole entry, change not shown): as above
Procedure: as §2, §3

[12] = target: E. coli GlmS mutant GlmS*64 (strain 2123-64) (Escherichia coli, UniProt P17169); assay: GlmS sensitivity to inhibition by glucosamine-6-P; format: biochemical; conditions: 0-30 mM glucosamine-6-P; FIG. 5
E. coli GlmS mutant GlmS*64 (strain 2123-64), sequence (P17169 whole entry, change not shown): as above
Procedure: as §2, §3

[13] = target: E. coli glucosamine synthase GlmS*54, SEQ ID NO:6 (Ala39Thr, Arg250Cys, Gly472Ser) (Escherichia coli, UniProt P17169, A39T/G472S/R250C); assay: Effects of phosphorylated sugars on glucosamine synthase, crude extract of lactose-induced 7107-18 cells; format: biochemical; conditions: 10 mM or relatively high concentration
E. coli glucosamine synthase GlmS*54, SEQ ID NO:6 (Ala39Thr, Arg250Cys, Gly472Ser), sequence (P17169 whole entry A39T/R250C/G472S): as the sequence (P17169 whole entry, change not shown) above, with A39T, R250C, G472S counted along it
Procedure: as §1

[14] = tested on: phosphoglucoisomerase (Pgi); assay: Effect of phosphorylated amino sugars on phosphoglucoisomerase activity (FIG. 15); format: biochemical; conditions: in vitro
Description: Therefore, effects of glucosamine-6-P and N-acetylglucosamine-6-P on several of the enzymes were examined.

[15] = target: phosphoglucoisomerase (Pgi) (Escherichia coli, UniProt P0A6T1); conditions: literature; cited from earlier work
phosphoglucoisomerase (Pgi) (Escherichia coli, UniProt P0A6T1), sequence (P0A6T1 whole entry): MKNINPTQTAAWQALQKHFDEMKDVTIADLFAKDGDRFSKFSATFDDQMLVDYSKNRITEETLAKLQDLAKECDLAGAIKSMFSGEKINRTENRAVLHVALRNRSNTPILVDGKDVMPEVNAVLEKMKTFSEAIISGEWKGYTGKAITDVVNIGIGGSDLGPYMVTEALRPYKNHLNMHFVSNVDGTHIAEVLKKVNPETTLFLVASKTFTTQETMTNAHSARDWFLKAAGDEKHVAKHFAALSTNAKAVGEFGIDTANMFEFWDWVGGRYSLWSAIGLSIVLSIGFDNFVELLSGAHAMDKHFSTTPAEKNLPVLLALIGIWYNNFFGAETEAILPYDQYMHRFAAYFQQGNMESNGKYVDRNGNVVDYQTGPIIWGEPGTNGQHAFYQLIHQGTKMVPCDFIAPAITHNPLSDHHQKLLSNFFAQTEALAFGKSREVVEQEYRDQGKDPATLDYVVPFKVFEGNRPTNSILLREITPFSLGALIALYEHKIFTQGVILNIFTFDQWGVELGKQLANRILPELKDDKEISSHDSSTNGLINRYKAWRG

[16] = tested on: phosphoglucoisomerase (Pgi); conditions: cited from earlier work
[17] = 0-30 mM glucosamine-6-P, FIG. 5

SMILES: N[C@H]1C(O)O[C@H](COP(=O)(O)O)[C@@H](O)[C@@H]1O (stereo partly drawn) [glucosamine-6-P, glucosamine-6-phosphate]
- activity at 10000 µM [1]: 70%
- activity at 20000 µM [1]: 46%
- inhibition of glucosamine synthetase (in words) [1]: strong inhibition
- inhibition of glucose-6-P dehydrogenase (zwf) [2]: more potent inhibitor of the enzyme than N-acetylglucosamine-6-P
- Ki [3]: 560 µM
- inhibition at 1000 µM ([3]; read-out: loss of activity at 1 mM glucosamine-6-P): ~50%
- Ki [4]: 4000 µM
- effect of glucosamine-6-P on enzyme activity ([4]; 1 mM glucosamine-6-P, saturating substrates): essentially has no effect on enzyme activity
- remaining activity at 10000 µM ([4]; read-out: activity remaining at 10 mM glucosamine-6-P): ~50%
- Ki [5]: 1600 µM
- Ki [6]: 3500 µM
- sensitivity to GlcN-6-P inhibition [6, 17]: reduced sensitivity to GlcN-6-P inhibition
- Ki [7]: 1500 µM
- Ki [8]: 1400 µM
- sensitivity to GlcN-6-P inhibition [8, 17]: reduced sensitivity to GlcN-6-P inhibition
- product resistance ([9]; 0, 2 and 4 mM glucosamine-6-P, FIG. 4): product resistance very comparable to the E. coli mutant GlmS enzymes
- Ki ([9]; read-out: Ki (GlcN-6-P)): 1250 µM
- sensitivity to GlcN-6-P inhibition [10]: reduced sensitivity to GlcN-6-P inhibition
- sensitivity to GlcN-6-P inhibition [11]: reduced sensitivity to GlcN-6-P inhibition
- sensitivity to GlcN-6-P inhibition [12]: reduced sensitivity to GlcN-6-P inhibition
- inhibition of glucosamine synthetase (in words) [13]: strong inhibition on glucosamine synthetase at relatively high concentration
- inhibition of Pgi (in words) [14]: Inhibition is observed
- reported inhibitor of phosphoglucoisomerase (Pgi) [15]: inhibitor
- inhibition of phosphoglucoisomerase (literature) [16]: reported as an inhibitor of Pgi; also recorded: reported as an inhibitor of phosphoglucoisomerase

Source: patent US8124381B2, “Process and materials for production of glucosamine and N-acetylglucosamine” (Arkion Life Sciences, priority 2002, dated 2012)
